# Results reported in patent US6355799B1, “Substituted benzene compounds, process for their preparation, and herbicidal and defoliant compositions containing them” (ISK Americas Incorporated, priority 1997, dated 2002).
# Legend:
# Assay type in all cases: in vivo
# [1] = system: barnyardgrass (Echinochloa crus-galli, ECHCG); experiment: Pre-emerge test, greenhouse herbicide activity screening; details: pre-emerge, phytotoxicity rating 0-100 at 14 days after application
# Excerpt: (§1) A standard greenhouse herbicide activity screening system was used to evaluate the herbicidal efficacy and crop safety of these test compounds. Seven broadleaf weed species including redroot pigweed (Amaranthus retroflexus, AMARE, velvetleaf (Abutilon theophrasti, ABUTH), sicklepod (Cassia obtusifolia, CASOB), ivyleaf morningglory (Ipomoea hederacea, IPOHE), lambsquarters (Chenopodium album, CHEAL), common ragweed (Ambrosia artemisizfolia L., AMBEL), and cocklebur (Xanthium strumarium, XANST) were used as test species. Four grass weed species including green foxtail (Setaria viridis, SETVI), barnyardgrass (Echinochloa crus-galli, ECHCG), johnsongrass (Sorghum halepense, SORHA), and large crabgrass (Digitaria sanguinalis, DIGSA) were also used. In addition, three crop species, field corn (Zea mays L., var. Dekalb 535, CORN), soybean (Glycine max L., var. Pella 86, SOY), and is upland rice (Oryza sp., var. Tebonnet, RICE) were included.
# (§2) All plants were grown in 10 cm square plastic pots which were filled with a sandy loam soil mix. For pre-emerge tests, seeds were planted one day prior to application of the test compounds. For post-emerge tests, seeds were planted 8-21 days prior to the test to allow emergence and good foliage development prior to application of the test substances. At the time of the post-emerge application, plants of all species were usually at the 2-3 leaf stage of development.
# (§3) All test compounds Were dissolved in acetone and applied to the test units in a volume of 187 l /ha. Test materials were applied at rates ranging from 15 g ai/ha to 1000 g ai/ha using a track sprayer equipped with a TJ8001E even flow flat fan spray nozzle. Plants were arranged on a shelf so that the top of the canopy (post-emerge) or top of the soil surface (pre-emerge) was 40-45 cm below the nozzle. Pressurized air was used to force the test solution through the nozzle as it was mechanically advanced (via electrically driven chain drive) over the top of all test plants/pots. This application simulates a typical commercial field herbicide application.
# (§4) In the post-emerge test, a commercial non-ionic surfactant was also included (0.25% v/v) to enhance wetting of the leaf surfaces of target plants. Immediately after application, test units of the pre-emerge applications were watered at the soil surface to incorporate the test materials. Subsequently, these test units were bottom-watered. Post-emerge test units were always bottom-watered.
# (§5) At 14 days after application of the test materials, phytotoxicity ratings were recorded. A rating scale of 0-100 was used as previously described in Research Methods in Weed Science, 2nd edition, B. Truelove, Ed., Southern Weed Science Society, Auburn University, Auburn, Ala. 1977. Briefly, “0” corresponds to no damage and “100” corresponds to complete death of all plants in the test unit. This scale was used both to determine efficacy against weed species and damage to crop species. Herbicide activity data for various compounds of this invention, which are shown by compound No. in Tables 1-8, are shown in Tables 11 and 12.
# [2] = system: large crabgrass (Digitaria sanguinalis, DIGSA); experiment: as above; details: pre-emerge, phytotoxicity rating 0-100 at 14 days after application
# Excerpt: as §1, §2, §3, §4, §5
# [3] = system: green foxtail (Setaria viridis, SETVI); experiment: as above; details: pre-emerge, phytotoxicity rating 0-100 at 14 days after application
# Excerpt: as §1, §2, §3, §4, §5
# [4] = system: velvetleaf (Abutilon theophrasti, ABUTH); experiment: as above; details: pre-emerge, phytotoxicity rating 0-100 at 14 days after application
# Excerpt: as §1, §2, §3, §4, §5
# [5] = system: lambsquarters (Chenopodium album, CHEAL); experiment: as above; details: pre-emerge, phytotoxicity rating 0-100 at 14 days after application
# Excerpt: as §1, §2, §3, §4, §5
# [6] = system: ivyleaf morningglory (Ipomoea hederacea, IPOHE); experiment: as above; details: pre-emerge, phytotoxicity rating 0-100 at 14 days after application
# Excerpt: as §1, §2, §3, §4, §5
# [7] = system: sicklepod (Cassia obtusifolia, CASOB); experiment: as above; details: pre-emerge, phytotoxicity rating 0-100 at 14 days after application
# Excerpt: as §1, §2, §3, §4, §5
# [8] = system: field corn (Zea mays L., var. Dekalb 535, CORN); experiment: Post-emerge test, crop safety; details: post-emerge, crop damage rating 0-100 at 14 days after application
# How it was run: (§6)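 Compounds in acetone were track-sprayed at 15-1000 g ai/ha (187 l/ha) on sandy loam pots: pre-emerge one day after seeding, post-emerge at 2-3 leaf stage with 0.25% v/v non-ionic surfactant. Phytotoxicity was rated 14 days later on a 0 (no damage) to 100 (complete death) scale.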
# [9] = system: upland rice (Oryza sp., var. Tebonnet, RICE); experiment: Post-emerge test, crop safety; details: post-emerge, crop damage rating 0-100 at 14 days after application
# How it was run: as §6
# [10] = system: barnyardgrass (Echinochloa crus-galli, ECHCG); experiment: Post-emerge test, greenhouse herbicide activity screening; details: post-emerge, phytotoxicity rating 0-100 at 14 days after application
# Excerpt: as §1, §2, §3, §4, §5
# [11] = system: large crabgrass (Digitaria sanguinalis, DIGSA); experiment: as above; details: post-emerge, phytotoxicity rating 0-100 at 14 days after application
# Excerpt: as §1, §2, §3, §4, §5
# [12] = system: green foxtail (Setaria viridis, SETVI); experiment: as above; details: post-emerge, phytotoxicity rating 0-100 at 14 days after application
# Excerpt: as §1, §2, §3, §4, §5
# [13] = system: velvetleaf (Abutilon theophrasti, ABUTH); experiment: as above; details: post-emerge, phytotoxicity rating 0-100 at 14 days after application
# Excerpt: as §1, §2, §3, §4, §5
# [14] = system: lambsquarters (Chenopodium album, CHEAL); experiment: as above; details: post-emerge, phytotoxicity rating 0-100 at 14 days after application
# Excerpt: as §1, §2, §3, §4, §5
# [15] = system: redroot pigweed (Amaranthus retroflexus, AMARE); experiment: as above; details: post-emerge, phytotoxicity rating 0-100 at 14 days after application
# Excerpt: as §1, §2, §3, §4, §5
# [16] = system: ivyleaf morningglory (Ipomoea hederacea, IPOHE); experiment: as above; details: post-emerge, phytotoxicity rating 0-100 at 14 days after application
# Excerpt: as §1, §2, §3, §4, §5
# [17] = system: sicklepod (Cassia obtusifolia, CASOB); experiment: as above; details: post-emerge, phytotoxicity rating 0-100 at 14 days after application
# Excerpt: as §1, §2, §3, §4, §5
# [18] = system: field corn (Zea mays L., var. Dekalb 535, CORN); experiment: Pre-emerge test, crop safety; details: crop damage, pre-emerge, phytotoxicity rating 0-100 at 14 days after application
# How it was run: (§7)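 Fourteen days after spraying, crop and weed injury was graded visually from 0, no effect, to 100, every plant dead. Test substances were dissolved in acetone and applied at 15–1000 g ai/ha with a flat-fan nozzle. Application was either pre-emergence, one day after sowing, or post-emergence at the 2–3 leaf stage.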
# [19] = system: upland rice (Oryza sp., var. Tebonnet, RICE); experiment: Pre-emerge test, crop safety; details: crop damage, pre-emerge, phytotoxicity rating 0-100 at 14 days after application
# How it was run: as §7
# [20] = system: redroot pigweed (Amaranthus retroflexus, AMARE); experiment: Pre-emerge test, greenhouse herbicide activity screening; details: pre-emerge, phytotoxicity rating 0-100 at 14 days after application
# How it was run: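 Plants grown in 10 cm pots of sandy loam mix received acetone-dissolved compounds through a moving flat-fan nozzle. Doses ranged from 15 to 1000 g ai/ha. Pre-emerge pots were seeded one day earlier, post-emerge pots 8–21 days earlier. Fourteen days on, each pot was graded 0–100 for damage.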
smiles,measurement,setting,value
Cc1cc(C)c(COC(=O)Nc2c(C)c(Cl)cc(F)c2-n2c(=O)cc(C(F)(F)F)n(C)c2=O)c(C)c1 [4-69],Pre-emerge Herbicidal Activity ECHCG,[1]; rate 63 g ai/ha,30
same,Pre-emerge Herbicidal Activity ECHCG,[1]; rate 250 g ai/ha,70
same,Pre-emerge Herbicidal Activity DIGSA,[2]; rate 63 g ai/ha,100
same,Pre-emerge Herbicidal Activity DIGSA,[2]; rate 250 g ai/ha,100
same,Pre-emerge Herbicidal Activity SETVI,[3]; rate 63 g ai/ha,95
same,Pre-emerge Herbicidal Activity SETVI,[3]; rate 250 g ai/ha,100
same,Pre-emerge Herbicidal Activity ABUTH,[4]; rate 63 g ai/ha,80
same,Pre-emerge Herbicidal Activity ABUTH,[4]; rate 250 g ai/ha,90
same,Pre-emerge Herbicidal Activity CHEAL,[5]; rate 63 g ai/ha,70
same,Pre-emerge Herbicidal Activity CHEAL,[5]; rate 250 g ai/ha,90
same,Pre-emerge Herbicidal Activity IPOHE,[6]; rate 63 g ai/ha,0
same,Pre-emerge Herbicidal Activity IPOHE,[6]; rate 250 g ai/ha,40
same,Pre-emerge Herbicidal Activity CASOB,[7]; rate 63 g ai/ha,0
same,Pre-emerge Herbicidal Activity CASOB,[7]; rate 250 g ai/ha,50
same,Post-emerge Herbicidal Activity CORN,[8]; 63 g ai/ha,5
same,Post-emerge Herbicidal Activity CORN,[8]; 250 g ai/ha,35
same,Post-emerge Herbicidal Activity RICE,[9]; 63 g ai/ha,0
same,Post-emerge Herbicidal Activity RICE,[9]; 250 g ai/ha,40
same,Post-emerge Herbicidal Activity ECHCG,[10]; 63 g ai/ha,20
same,Post-emerge Herbicidal Activity ECHCG,[10]; 250 g ai/ha,40
same,Post-emerge Herbicidal Activity DIGSA,[11]; 63 g ai/ha,20
same,Post-emerge Herbicidal Activity DIGSA,[11]; 250 g ai/ha,50
same,Post-emerge Herbicidal Activity SETVI,[12]; 63 g ai/ha,40
same,Post-emerge Herbicidal Activity SETVI,[12]; 250 g ai/ha,80
same,Post-emerge Herbicidal Activity ABUTH,[13]; 63 g ai/ha,100
same,Post-emerge Herbicidal Activity ABUTH,[13]; 250 g ai/ha,100
same,Post-emerge Herbicidal Activity CHEAL,[14]; 63 g ai/ha,90
same,Post-emerge Herbicidal Activity CHEAL,[14]; 250 g ai/ha,100
same,Post-emerge Herbicidal Activity AMARE,[15]; 63 g ai/ha,100
same,Post-emerge Herbicidal Activity AMARE,[15]; 250 g ai/ha,100
same,Post-emerge Herbicidal Activity IPOHE,[16]; 63 g ai/ha,70
same,Post-emerge Herbicidal Activity IPOHE,[16]; 250 g ai/ha,100
same,Post-emerge Herbicidal Activity CASOB,[17]; 63 g ai/ha,40
same,Post-emerge Herbicidal Activity CASOB,[17]; 250 g ai/ha,70
same,Pre-emerge Herbicidal Activity CORN,[18]; rate 63 g ai/ha,0
same,Pre-emerge Herbicidal Activity CORN,[18]; rate 250 g ai/ha,0
same,Pre-emerge Herbicidal Activity RICE,[19]; rate 63 g ai/ha,10
same,Pre-emerge Herbicidal Activity RICE,[19]; rate 250 g ai/ha,30
same,Pre-emerge Herbicidal Activity AMARE,[20]; rate 63 g ai/ha,30
same,Pre-emerge Herbicidal Activity AMARE,[20]; rate 250 g ai/ha,80
